# Results reported in patent US9834525B2, “Inhibitors of paxillin function and related compositions and methods” (UNIVERSITY OF TENNESSEE RESEARCH FOUNDATION, priority 2015, dated 2017).
# Entries after “also recorded” stand apart in the source; their conditions may differ.
# Legend:
# [1] = test system: UM tumor cells; assay: Phalloidin (F-actin) analysis by flow cytometry in UM cells; assay type: cell-based, human; details: treatment for 24 hrs
# Experimental: Retinal endothelial cells (REC) and UM-OMM 2.5 cells were harvested, washed and counted. 1.0×10^6 cells were fixed for 1 hr at 4° C. and permeabilized with the Intracellular Fixation and Permeabilization Buffer Kit (eBiosciences, San Diego, Calif.). Cells were washed followed by Alexa-Fluor 647 Phalloidin (MOLECULAR PROBES, Life Technologies, Carlsbad, Calif.) labeling using 1 U/μL. Cells were washed and analyzed using BD LSR II followed by analysis using FlowJo xV10.0.6 software.
# Next, it was investigated if reduced numbers were a consequence of a reduction in UM cells proliferation. Cell cultures in the presence or absence of compound (II-4) were analyzed by follow cytometry for cytoskeletal fragmentation and proliferation. Uncontrolled cytoskeletal remodeling and cell proliferation are considered hallmarks of tumor growth and metastasis. […]
# (§1) FIG. 15: The paxillin inhibitor Compound (II-4) selectively affects cellular proliferation of primary UM cells that become metastatic. […] Unlabeled cells were used to control fluorescence. […] B. Quantitation of experiment +/−SD including primary UM that becomes metastatic (Mel 270), metastatic (OMM 2.1) and primary (92.1) UM cells. *P=0.0007 and **P=0.0005. […] Quantitation of VLA-4 protein levels +/−SD from n=3. […]
# [2] = test system: VLA-4; assay: VLA-4 protein levels by flow cytometry in UM cells; assay type: cell-based, human; details: UM cells after treatment
# Experimental: Harvested cells were washed and counted. 1.0×10^6 cells were labeled with the following cell surface antibodies: FITC anti-CD54 (ICAM-1, clone HA58, BioLegend), PE anti-CD102 (ICAM-2, clone CBR-IC2/2, BioLegend), PE-Cy7 anti-CD49d (VLA-4, clone 9F10, BioLegend), APC anti-CD106 (VCAM-1, clone STA, BioLegend), PerCP-Cy5.5 anti-CD166 (ALCAM, clone 3A6, BioLegend), Biotin anti-CD326 (EpCAM, clone 1B7, BD Biosciences) using manufacturer's conditions. Cells were incubated in antibody cocktail for 30 minutes on ice followed by two washes with PBS/2% FBS. Second-labeling step was performed using Brilliant Violet 421 Streptavidin (bv421-SA, BioLegend) for 30 minutes on ice followed by two washes as before. […]
# Next, it was investigated if reduced numbers were a consequence of a reduction in UM cells proliferation. Cell cultures in the presence or absence of compound (II-4) were analyzed by follow cytometry for cytoskeletal fragmentation and proliferation. […]
# as §1
# [3] = test system: metastatic-UM cell; assay: CFSE cellular proliferation, metastatic UM; assay type: cell-based, human; details: metastatic-UM cells; 96 hrs culture, 1 μM for the last 24 hrs
# Experimental: Harvested cells were resuspended at a concentration of 1.0×10^6 cells/mL in warm PBS/1% FBS. Cells were labeled with […] (Invitrogen) for 5 minutes at 37° C. then quenched on cold growth media (final volume 20 mL) for 10 minutes, twice. Cultured unlabeled cells were used as controls.
# To test the hypothesis that inhibition of paxillin will reduce cellular proliferation UM cell lines were labeled with carboxyfluorescein succunimidyl ester (CFSE), a cell tracking dye, and cultured for 96 hrs. A group of cells received treatment with compound (II-4) for the last 24 hours. Maximum CFSE fluorescence was controlled using labeled cells prior culture −0 hr. Negative control was established using unlabeled cells cultured in parallel. Histograms in FIG. 15D show 96 hrs cultured cells divided with a 1-log shift or reduction in CFSE intensity. […] Cell proliferation was not affected in the 92.1 cell line. […]
# as §1
# [4] = test system: paxillin; assay: Murine OIR model, Western blot of retinal homogenates; assay type: in vivo, mouse; details: daily ocular administration 0.5 mg/kg or 5 mg/kg, P17
# Excerpt: Topical delivery of compound (II-4) using an ocular ME was chosen for several reasons. First, intravitreal injection is technically challenging and, unlike intraocular delivery of proteins, is unnecessary for delivery of small molecules. […] The murine OIR model was used to examine the effect of compound (II-4) on the natural history of VEGF-induced proliferative retinopathy. Briefly, pups were exposed to 75% oxygen at post-natal day 7 (P7) for 5 days and then returned to normal oxygen at P12. Mice received daily ocular administration of either compound (II-4) (0.5 mg/kg or 5 mg/kg) or vehicle (ME) from P12 to P17. Eyes were enucleated at P17 and retinal whole-mounts stained for endothelial cells followed by quantification of avascular area and vascular tuft formation.
# FIG. 22: Oxygen-Induced Retinopathy (OIR). (A:) P17 retinal whole-mounts were stained for endothelial cells. […] Data represent mean (±SD). N=8-14/group. […] (C): Quantitation of panel A neovascular area. (D): Quantitation of panel A avascular area. (E): Quantitation of panel B total paxillin.
smiles,measurement,setting,value
COc1cc(C2OC(=O)Nc3c2ccc2ccccc32)cc(OC)c1OC (stereo not shown) [compound II-4],"actin remodeling (intracellular phalloidin, F-actin)",[1],no difference in actin remodeling
same,VLA-4 protein levels,[2],does not affect VLA-4 protein
same,cell proliferation (CFSE),[3],reduction was not observed
same,total paxillin in retinal homogenates,[4],dose-dependent reduction; also recorded: reduced total paxillin protein
